Measurements: patent EP0198605A1, “Prophylaxis of pharmacotherapy of liver disorders” (TEIJIN LIMITED, priority 1985, dated 1986)
Like-named read-outs stand apart in the source and are kept apart here.

Assays:
[1] = test system: hepatic necrocytosis induced by carbon tetrachloride; assay: Hepatic necrocytosis induced by carbon tetrachloride (in vivo), serum GOT and GPT; parameters: species or system SD male rats; settings: for Enzyme Activity GOT (U/L) / Enzyme Activity GPT (U/L): 6 administrations, CCl4 0.5 ml/kg i.p.; for inhibiting liver necrocytosis induced by CCl4 (result in words): in vivo, summary of Tables 4 to 6
Procedure: In the evaluation tests, 6 weeks old SD male rats were used. […] The rats were freely fed or supplied with a solid feed and drinking water.
Carbon tetrachloride (CC14) was diluted with an olive oil and was peritoneally injected in each rat at a dosage of 0.5 ml/kg. To the control group, only CC14 diluted with the olive oil and a 5% gum arabic solution containing no active ingredient were administered. Furthermore, only the olive oil but no CC14 was administered to the olive oil injection group in the Tables.
The methincyanine compounds listed in Tables 4 to 6 were administered as follows. Methincyanine compounds were diluted 100 times with dextrose dissolved in 5% gum arabic solutions. The administration schedules were such that the methiocyanine compounds were administered 6 times in total from 5 days before the CC14 injection to the day of the injection.
Blood was sampled from the orbital veniplex of the rat and was allowed to stand at room temperature for one hour. The blood sample was then centrifugally separated at 2800 rpm for 10 minutes. The resultant supernatant was used as a serum sample.
The determination of GOT and GPT in the serum sample was carried out by using a determination kit (available from Boeklinger-Yamanouchi Co.) and the results were recorded in an automatic analyzer (available from FLEXIGEM Co.).

[2] = test system: hepatic disorders induced by D-galactosamine; assay: Hepatic disorders induced by D-galactosamine in rats (serum GOT, GPT, bilirubin, complement value); assay type: in vivo, Wister male rats; settings: DSCG i.p. 1 mg/kg, GalN 250 mg/kg i.p., serum two days after GalN
Procedure: In the evaluation tests, 8 to 9 weeks old Wister male rats were used. Five rats were used in each test group. The rats were given standard chow and water ad libitum.
D-Galactosamine hydrochloride (GalN) was dissolved in sterilized physiological saline and the pH thereof was adjusted to 7. The resultant solution was peritoneally administered to each rat at a dosage of 250 mg/kg. To one control group, only GalN was injected, and physiological saline was administered to the other control group instead of pionin. Furthermore, only physiological saline but no GaIN was injected to the physiological saline administration group.
The pionin was administered as follows. It is diluted 10, 100, and 1000 times with dextrose and these diluted powders were dissolved in saline. All drugs were intravenously or orally administered at doses of 0.1, 0.5, 1, and 10 pg/kg. The administration was carried out from five days before to the day after the GaIN injection.
The rats were killed two days after the injection of GalN and blood was collected. The blood samples were allowed to stand at room temprature for one hour and serum was then centrifugally separated at 2500 rpm for 10 minutes.
The determination of GOT and GPT in the serum samples was carried out according to a modification of the Reitman-Framkel method [see Amir. J. Clin. Pothil. 28, 56 (1957) and J. Clin. Invest. 34, 131 (1955)], the determination of bilirubin was carried out according to a modification of Jendrassik-Grof method [see Clinical Chemistry, 19, 984-993 (1973)], and the determination of the complement value was carried out according to the Mayer method (see Experimental Immunochemistry, 2, 133-240, 1961).
The results are shown in Table 2 (i.e., intravenous administration of pionin) and Table 3 (i.e., oral administration of pionin). Disodium cromoglycate (i.e., DSCG) was used as a control.

[3] = test system: hepatic disorders induced by D-galactosamine; assay: as above; assay type: in vivo, Wister male rats; settings: for Bilirubin / Complement value (%) / Enzyme activity GOT (K.U.) / Enzyme activity GPT (K.U.): GalN 250 mg/kg i.p., serum two days after GalN
rats = settings: oral, cited from earlier work
rat liver cells = assay: Hepatic necrocytosis induced by carbon tetrachloride (in vitro), trypan blue exclusion test; assay type: cell-based
Procedure: Liver cells were prepared according to a method disclosed in Nakamura et al "Proteins, Nucleic Acids, and Enzymes" Vol. 24, pages 55-76 (1981). That is, the rat liver cells, which were previously peritoneally treated with phenobarbital at 80 mg/kg/day for 3 days, were collected by centrifugal separation after being subjected to 0.05% collagenase perfusion.
The liver cells thus obtained were suspended in a William's E culture medium containing 10% fetal calf serum, dexamethasone (10^-6 M) and insulin (0.02 unit/ml). A 3 ml amount of the cell dispersion having a cell content of 5 x 10^S cells/ml was placed in a 25 mm Falcon dish and was then incubated at a temperature of 37°C under an atmosphere of 5% C02 and 95% air for 3 hours. After 3 hours incubation, the number of surviving liver cells in the incubated dish was measured according to a trypan blue exclusion test. The average value thereof was used as a control value for the survival percentage of the liver cells in the pre-incubation.
Then, a culture medium containing 2-[2-(3-heptyl-4-methyl-4-thiazolin-2-ylidene) methyll-3-heptyl thiazolinium iodide (i.e., pionin) dissolved in ethanol was substituted after removing non-adhesive cells and was then incubated for a further one hour. The concentrations of pionin in the culture medium were 0.94 x 10^-6, 1.8x10^-7, 1x10^-8, 1x10^-9, and I x 10^-10 mole and, as a control or comparative test, the culture medium itself, the culture medium containing 0.5% of ethanol, and the culture medium containing 0.25 µm/ml of carbon tetrachloride were used.
Then, 0.25 pm/ml of carbon tetrachloride was added to each culture dish and the incubation was carried out for a further 3 hours under the same conditions mentioned above. No further carbon tetrachloride was added to the comparative culture containing carbon tetrachloride. After 3 hours incubation, the number of survival liver cells was measured according to a trypan blue exclusion test. The percentage ratio of the mean survival number to the survival number of the above-mentioned pre-incubation was then calculated.
The results are shown in Table 1, in which the mean survival cell percentage (%) and standard deviation thereof in the culture dish containing 4 to 29 liver cells (i.e., N). Statistical significance was evaluated by Student's t-test.

[4] = Table 2 experiment, DSCG i.p. 1 mg/kg
[5] = Table 3 experiment, DSCG i.p. 1 mg/kg
[6] = Table 2, intravenous, 0.1 µg/kg
[7] = Table 2, intravenous, 0.5 µg/kg

CCCCCCCCCCCCN1C(C)=CSC1=Cc1scc(C)[n+]1CCCC [Compound of Example 1, 2-[2-(3-dodecyl-4-methyl-4-thiazolin-2-ylidene)methyl]-3-butyl-4-methyl thiazolinium iodide]
Enzyme Activity GOT (U/L) ([1]; Table 6, oral, 10 µg/kg): 627 ± 92 U/L
Enzyme Activity GPT (U/L) ([1]; Table 6, oral, 10 µg/kg): 198 ± 37 U/L
inhibiting liver necrocytosis induced by CCl4 (result in words) [1]: strong inhibiting activities against liver necrocytosis induced by CC14 when compared with pionin

CCCCCCC[n+]1cc(C)sc1C=C1SC=C(C)N1CCCC [Compound of Example 4, 2-[2-(3-butyl-4-methyl-4-thiazolin-2-ylidene)methyl]-3-heptyl-5-methyl thiazolinium iodide]
Enzyme Activity GOT (U/L) ([1]; Table 5, oral, 10 µg/kg): 386 ± 50 U/L
Enzyme Activity GPT (U/L) ([1]; Table 5, oral, 10 µg/kg): 118 ± 21 U/L

CCCCCCCCCCCCN1C(C)=CSC1=Cc1scc(C)[n+]1CC [Compound of Example 3, 2-[2-(3-dodecyl-4-methyl-4-thiazolin-2-ylidene)methyl]-3-ethyl-4-methyl thiazolinium iodide]
Enzyme Activity GOT (U/L) ([1]; Table 5, oral, 10 µg/kg): 435 ± 67 U/L
Enzyme Activity GPT (U/L) ([1]; Table 5, oral, 10 µg/kg): 107 ± 18 U/L

O=C(O)c1cc(=O)c2c(OCC(O)COc3cccc4oc(C(=O)O)cc(=O)c34)cccc2o1 [DSCG, Disodium cromoglycate, reference compound]
Enzyme activity GPT (K.U.) ([2]; Table 2 experiment): 220 ± 20 K.U.
Bilirubin ([2]; Table 3 experiment): 0.21 mg/dL
Enzyme activity GOT (K.U.) ([2]; Table 3 experiment): 480 ± 50 K.U.
Bilirubin [3, 4]: 0.29 mg/dL
Complement value (%) [3, 4]: 88.4%
Enzyme activity GOT (K.U.) [3, 4]: 400 ± 42 K.U.
Complement value (%) [3, 5]: 80.4%
Enzyme activity GPT (K.U.) [3, 5]: 230 ± 33 K.U.

CCCCCCCN1C(C)=CSC1=Cc1scc(C)[n+]1CCCCCCC [Pionin, 2-[2-(3-heptyl-4-methyl-4-thiazolin-2-ylidene)methyl]-3-heptyl-4-methyl thiazolinium iodide]
Enzyme Activity GOT (U/L) ([1]; Table 4, oral, 1 µg/kg): 678.3 ± 76.5 U/L
Enzyme Activity GPT (U/L) ([1]; Table 4, oral, 1 µg/kg): 209.0 ± 31.2 U/L
Enzyme Activity GOT (U/L) ([1]; Table 4, oral, 3 µg/kg): 754.5 ± 108.8 U/L
Enzyme Activity GPT (U/L) ([1]; Table 4, oral, 3 µg/kg): 269.7 ± 50.3 U/L
Enzyme Activity GOT (U/L) ([1]; Table 4, oral, 10 µg/kg): 559.2 ± 56.6 U/L
Enzyme Activity GPT (U/L) ([1]; Table 4, oral, 10 µg/kg): 165.8 ± 25.9 U/L
Enzyme Activity GOT (U/L) ([1]; Table 4, oral, 30 µg/kg): 946.8 ± 110.6 U/L
Enzyme Activity GPT (U/L) ([1]; Table 4, oral, 30 µg/kg): 311.4 ± 49.4 U/L
Enzyme Activity GOT (U/L) ([1]; Table 6, oral, 10 µg/kg): 807 ± 172 U/L
Enzyme Activity GPT (U/L) ([1]; Table 6, oral, 10 µg/kg): 251 ± 83 U/L
inhibiting liver necrocytosis induced by CCl4 (result in words) [1]: has an activity capable of inhibiting liver necrocytosis induced by CCl4
LD50 (rats; female rats): 503 mg/kg
LD50 (rats; male rats): 460 mg/kg
viability at 0.94 µM (rat liver cells; Rattus norvegicus, CCl4 + Pionin 0.94 x 10^-6 M, 3 hours after CCl4, mean ± standard deviation, read-out: Survival ratio (%)): 43.6 ± 11.6%
viability at 0.01 µM (rat liver cells; Rattus norvegicus, CCl4 + Pionin 1 x 10^-8 M, 3 hours after CCl4, mean ± standard deviation, read-out: Survival ratio (%)): 63.5 ± 19%
viability at 0.001 µM (rat liver cells; Rattus norvegicus, CCl4 + Pionin 1 x 10^-9 M, 3 hours after CCl4, mean ± standard deviation, read-out: Survival ratio (%)): 63.4 ± 6.8%
viability at 0.0001 µM (rat liver cells; Rattus norvegicus, CCl4 + Pionin 1 x 10^-10 M, 3 hours after CCl4, mean ± standard deviation, read-out: Survival ratio (%)): 63.2 ± 23%
viability at 0.18 µM (rat liver cells; Rattus norvegicus, CCl4 + Pionin 1.8 x 10^-7 M, 3 hours after CCl4, mean ± standard deviation, read-out: Survival ratio (%)): 47.1 ± 8.1%
inhibiting liver necrocytosis (result in words) (rat liver cells; in vitro, summary of Table 1): has an activity capable of inhibiting liver necrocytosis
Bilirubin [3, 6]: 0.51 mg/dL
Complement value (%) [3, 6]: 88.2%
Enzyme activity GOT (K.U.) [3, 6]: 550 ± 160 K.U.
Enzyme activity GPT (K.U.) [3, 6]: 510 ± 62 K.U.
Bilirubin [3, 7]: 0.35 mg/dL
Complement value (%) [3, 7]: 96.6%
Enzyme activity GOT (K.U.) [3, 7]: 420 ± 30 K.U.
Enzyme activity GPT (K.U.) [3, 7]: 300 ± 55 K.U.
Bilirubin ([3]; Table 2, intravenous, 1 µg/kg): 0.44 mg/dL
Complement value (%) ([3]; Table 2, intravenous, 1 µg/kg): 91.2%
Enzyme activity GOT (K.U.) ([3]; Table 2, intravenous, 1 µg/kg): 780 ± 29 K.U.
Enzyme activity GPT (K.U.) ([3]; Table 2, intravenous, 1 µg/kg): 600 ± 40 K.U.
Bilirubin ([3]; Table 2, intravenous, 10 µg/kg): 0.77 mg/dL
Complement value (%) ([3]; Table 2, intravenous, 10 µg/kg): 87.6%
Enzyme activity GOT (K.U.) ([3]; Table 2, intravenous, 10 µg/kg): 1036 ± 50 K.U.
Enzyme activity GPT (K.U.) ([3]; Table 2, intravenous, 10 µg/kg): 980 ± 39 K.U.
Bilirubin ([3]; Table 3, oral, 0.1 µg/kg): 0.77 mg/dL
Complement value (%) ([3]; Table 3, oral, 0.1 µg/kg): 86.1%
Enzyme activity GOT (K.U.) ([3]; Table 3, oral, 0.1 µg/kg): 1200 ± 198 K.U.
Enzyme activity GPT (K.U.) ([3]; Table 3, oral, 0.1 µg/kg): 1003 ± 87 K.U.
Bilirubin ([3]; Table 3, oral, 0.5 µg/kg): 0.36 mg/dL
Complement value (%) ([3]; Table 3, oral, 0.5 µg/kg): 91.1%
Enzyme activity GOT (K.U.) ([3]; Table 3, oral, 0.5 µg/kg): 622 ± 100 K.U.
Enzyme activity GPT (K.U.) ([3]; Table 3, oral, 0.5 µg/kg): 550 ± 51 K.U.
Bilirubin ([3]; Table 3, oral, 1 µg/kg): 0.55 mg/dL
Complement value (%) ([3]; Table 3, oral, 1 µg/kg): 92.3%
Enzyme activity GOT (K.U.) ([3]; Table 3, oral, 1 µg/kg): 710 ± 30 K.U.
Enzyme activity GPT (K.U.) ([3]; Table 3, oral, 1 µg/kg): 440 ± 13 K.U.
Bilirubin ([3]; Table 3, oral, 10 µg/kg): 0.88 mg/dL
Complement value (%) ([3]; Table 3, oral, 10 µg/kg): 88.8%
Enzyme activity GOT (K.U.) ([3]; Table 3, oral, 10 µg/kg): 1350 ± 136 K.U.
Enzyme activity GPT (K.U.) ([3]; Table 3, oral, 10 µg/kg): 1200 ± 188 K.U.
inhibition of liver disorders induced by D-galactosamine (result in words) ([3]; summary of Tables 2 and 3): can inhibit liver disorders induced by D-galactosamine

CCCCCCC[n+]1c(C=C2SC=C(C)N2CCCC)sc(C)c1C [Compound of Example 5, 2-[2-(3-butyl-4-methyl-4-thiazolin-2-ylidene)methyl]-3-heptyl-4,5-dimethyl thiazolinium iodide]
Enzyme Activity GOT (U/L) ([1]; Table 5, oral, 10 µg/kg): 393 ± 59 U/L
Enzyme Activity GPT (U/L) ([1]; Table 5, oral, 10 µg/kg): 135 ± 29 U/L

CCCCCCCCCCN1C(C)=CSC1=Cc1scc(C)[n+]1CCCC [Compound of Example 8, 2-[2-(3-decyl-4-methyl-4-thiazolin-2-ylidene)methyl]-3-butyl-4-methylthiazolinium iodide]
Enzyme Activity GOT (U/L) ([1]; Table 5, oral, 10 µg/kg): 310 ± 68 U/L
Enzyme Activity GPT (U/L) ([1]; Table 5, oral, 10 µg/kg): 99 ± 27 U/L
